Source: patent US6867207B2, “IL-5 inhibiting 6-azauracil derivatives” (Janssen Pharmaceutica N.V., priority 1997, dated 2005)

These compounds were tested on IL-5 production (assay: In vitro inhibition of IL-5 production in human blood (phytohemagglutinin-stimulated whole blood, ELISA)). Conditions: test dose 1×10^−6 M, 48 hours.
Format: cell-based
How it was run: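 Heparinised blood from healthy male donors, diluted threefold in RPMI 1640, preincubated 60 min at 37° C with compound (0.02% DMSO vehicle), then stimulated with 2 μg/mL phytohemagglutinin for 48 h. Supernatant IL-5 measured by ELISA; percentage inhibition at 1×10^−6 M or 1×10^−5 M.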
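Note: values marked with an asterisk were tested at 10 µM and unmarked values at 1 µM.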

Structure (SMILES)	% inh. (percentage inhibition of IL-5 production) [%]
CC(=O)Nc1ccc(SC(c2ccc(Cl)c(C(F)(F)F)c2)c2c(Cl)cc(-n3ncc(=O)[nH]c3=O)cc2Cl)cc1 (racemic) [Compound 398]	96
O=c1cnn(-c2cc(Cl)c(C(Sc3nc(-c4ccco4)cs3)c3ccc(Cl)c(C(F)(F)F)c3)c(Cl)c2)c(=O)[nH]1 (racemic) [Compound 399]	93
O=c1cnn(-c2cc(Cl)c(C(Sc3cnccn3)c3ccc(Cl)c(C(F)(F)F)c3)c(Cl)c2)c(=O)[nH]1 (racemic) [Compound 401]	92
O=c1cnn(-c2cc(Cl)c(C(Sc3nc4cc(Cl)ccc4s3)c3ccc(Cl)c(C(F)(F)F)c3)c(Cl)c2)c(=O)[nH]1 (racemic) [Compound 402]	90
O=c1cnn(-c2cc(Cl)c(C(Sc3nc(-c4ccccc4)no3)c3ccc(Cl)c(C(F)(F)F)c3)c(Cl)c2)c(=O)[nH]1 (racemic) [Compound 404]	92
Cc1sc(SC(c2ccc(Cl)c(C(F)(F)F)c2)c2c(Cl)cc(-n3ncc(=O)[nH]c3=O)cc2Cl)nc1-c1ccccc1 (racemic) [Compound 405]	80
O=c1cnn(-c2cc(Cl)c(C(SCc3cnccn3)c3ccc(Cl)cc3)c(Cl)c2)c(=O)[nH]1 (racemic) [Compound 407]	71
O=c1cnn(-c2cc(Cl)c(C(Sc3nc(-c4ccccc4)no3)c3ccc(Cl)cc3)c(Cl)c2)c(=O)[nH]1 (racemic) [Compound 408]	88
O=c1cnn(-c2cc(Cl)c(C(Sc3ccncn3)c3ccc(Cl)cc3)c(Cl)c2)c(=O)[nH]1 (racemic) [Compound 409]	88
O=c1cnn(-c2cc(Cl)c(C(Nc3nc(-c4ccccc4)cs3)c3ccc(Cl)c(C(F)(F)F)c3)c(Cl)c2)c(=O)[nH]1 (racemic) [Compound 411]	94
Cc1sc(NC(c2ccc(Cl)cc2)c2ccc(-n3ncc(=O)[nH]c3=O)cc2Cl)nc1-c1ccccc1 (racemic) [Compound 412]	16

Same assay, conditions: test dose 1×10^−6 M, 48 hours, read-out: % inh. (percentage inhibition of IL-5 production)

Structure (SMILES)	inhibition at 1 µM [%]
O=c1cnn(-c2cc(Cl)c(C(Sc3[nH]c(=S)[nH]c3-c3ccccc3)c3ccc(Cl)c(C(F)(F)F)c3)c(Cl)c2)c(=O)[nH]1 (racemic) [Compound 400, (±)-2-[3,5-dichloro-4-[[4-chloro-3-(trifluoromethyl)phenyl][(2,3-dihydro-5-phenyl-2-thioxo-1H-imidazol-4-yl)thio]-methyl]phenyl]-1,2,4-triazine-3,5(2H,4H)-dione]	76
O=c1cnn(-c2cc(Cl)c(C(Sc3nnc(-c4ccccc4)o3)c3ccc(Cl)cc3)c(Cl)c2)c(=O)[nH]1 (racemic) [Compound 406, (±)-2-[3,5-dichloro-4-[(4-chlorophenyl)[(5-phenyl-1,3,4-oxadiazol-2-yl)thio]methyl]phenyl]-1,2,4-triazine-3,5(2H,4H)-dione]	84
O=c1cnn(-c2ccc(C(Nc3nc4cccnc4s3)c3ccc(Cl)cc3)c(Cl)c2)c(=O)[nH]1 (racemic) [Compound 410, (±)-2-[3-chloro-4-[(4-chlorophenyl)[(thiazolo[5,4-b]pyridin-2-yl)amino]methyl]phenyl]-1,2,4-triazine-3,5(2H,4H)-dione]	15
O=c1cnn(-c2cc(Cl)c(C(Nc3ncccn3)c3ccc(Cl)cc3)c(Cl)c2)c(=O)[nH]1 (racemic) [Compound 413, (±)-2-[3,5-dichloro-4-[(4-chlorophenyl)[(2-pyrimidinyl)amino]-methyl]phenyl]-1,2,4-triazine-3,5(2H,4H)-dione]	59
O=c1cnn(-c2cc(Cl)c(C(CO)c3ccc(Cl)cc3)c(Cl)c2)c(=O)[nH]1 (racemic) [Compound 420, (±)-2-[3,5-dichloro-4-[1-(4-chlorophenyl)-2-hydroxyethyl]phenyl]-1,2,4-triazine-3,5(2H,4H)-dione]	33
